Results taken from patent US8124594B2, “Methods using phosphatidylserine, lysophosphatidylserine, and/or salts thereof to increase testosterone levels” (Chemi Nutra, LLC, priority 2007, dated 2012).

Tests used:
older males = assay: Effect of PS supplementation on serum and free testosterone of older males with exercise regimens; format: in vivo, human
Protocol: A. subject three, a physically active non smoking […] who took no prescription drugs or alcohol was the first subject. Starting on Day 1, the person consumed 600 mg of Phosphatidylserine (Chemi Nutra, Inc., White Bear Lake, Minn.) for 11 days accompanied by the following cardio and resistance workouts: • Day 1: lifted weights for 1.5 hours and intense cardio exercise, 12 minutes. • Day 2: intense cardio exercise for 28 minutes. • Day 3: easy pace walk, 1.5 mile. • Day 4: intense cardio exercise for 35 minutes. • Day 5: easy pace walk, 2 miles. • Day 6: lifted weights for 1.5 hours. • Days 7 and 8: rest, no exercise. • Day 9 intense cardio exercise, 35 minutes and 12 miles easy pace walk • Day 10: lifted weights 1.5 hours. Blood was drawn at 8:00 am on the first and eleventh day of the study and analyzed for serum and free testosterone by Life Extension National Diagnostics, Inc., Ft. Lauderdale, Fla. Serum testosterone rose from 575 nanograms per decilitier to 665 nanograms per deciliter, a 16% increase. B. The second subject (RJ) is a person. Starting on day 1, RJ consumed 400 mg PS daily for 11 days, accompanied by the following exercise regimens: • Day 2: bicycle ergometer for 30 minutes and elliptical trainer for 30 minutes. • Day 3: tennis singles match for 1.5 hours. • Day 4: treadmill 15 minutes and upper body resistance exercise for 1 hour. • Day 5: elliptical trainer for 45 minutes and resistance exercise for 30 minutes. • Day 6: rest. • Day 7: treadmill for 30 minutes; elliptical trainer for 30 minutes; resistance exercise for 30 minutes. • Day 8: rest. • Day 9: resistance exercise 1.5 hours. • Day 10 elliptical trainer for 1 hour. • Day 11: upper body resistance exercise for 30 minutes. Serum testosterone levels and free testosterone levels were measured on days 1 and 12. Serum testosterone increased from 290 nanograms/deciliter to 437 nanograms/deciliter, an increase of 51%. Free testosterone increased from 11.4 picograms/ml to 18.0 picograms/ml, an increase of 58%. C. The third subject is person one. The person consumed 300 mg PS (Chemi Nutra) daily for 11 days accompanied by a cardio and resistance training workout on days 2-11: • Day 2: 9 miles cycling for 35 minutes; 4 miles running for 40 minutes; 9 miles cycling for 40 minutes. • Day 3: tennis singles match for 1.5 hours. • Day 4: 9 miles cycling for 45 minutes; whole body resistance training for 1 hour; 9 miles cycling for 50 minutes. • Day 5: 9 miles cycling for 30 minutes; 5 miles running for 45 minutes; 9 miles cycling for 30 minutes • Day 6: rest. • Day 7: rest. • Day 8: resistance training 1.5 hours. • Day 9: 9 miles cycling for 50 minutes; upper body resistance exercise 1 hour; 9 miles cycling for 50 minutes. • Day 10: high-intensity resistance training for 30 minutes. • Day 11: 5 miles running for 50 minutes. Serum testosterone levels and free testosterone levels were measured on days 1 and 12. Serum testosterone increased from 734 nanograms/deciliter to 781 nanograms/deciliter, an increase of 6.4%. Free testosterone increased from 22.1 picograms/ml to 27.0 picograms/ml, an increase of 22%.

cortisol response [1] = conditions: cited from earlier work
cortisol response [2] = conditions: 800 mg, cited from earlier work
healthy male subjects = assay: Plasma testosterone response to moderate intensity cycle ergometer exercise after 10 days of oral PS or placebo (double-blind crossover); format: in vivo, human
Protocol: The purpose of the current study was to investigate the efficacy of short-term S-PS supplementation, at dosage levels less than the currently established dose, on testosterone response to acute moderate-intensity exercise. This study aimed to examine the influence of short-term supplementation with a moderate dose of PS (600 mg per day) on plasma concentrations of testosterone before, during, and following moderate intensity exercise in healthy males. 10 healthy male subjects participated in the study. Each subject was assigned to ingest 600 mg PS or placebo per day for 10 days using a double-blind, placebo-controlled, crossover design. Serial venous blood samples were taken at rest, after a 15 minute moderate intensity exercise protocol on a cycle ergometer that consisted of five 3-minute incremental stages beginning at 65% and ending at 85% VO2max, and during a 65 minute passive recovery. Plasma samples were assessed for testosterone for treatment (PS or placebo). PS increased AUC for testosterone to cortisol ratio (184±5%) when compared to placebo (p<0.05).
Subjects. Ten healthy males participated in this study. All subjects in this investigation participated in a familiarization session. During the familiarization session, subjects were informed as to the experimental procedures, completed a personal/medical history form, and signed informed consent statements in adherence with the human subject's guidelines of the American College of Sports Medicine. No subject in this trial was a vegetarian with all subjects reportedly consuming meat in their daily diet.
Each participant completed three testing sessions during the 21-day study. Participants performed a graded exercise test (starting at 50 W, increasing by 50 W increments every 2 minutes) on a cycle ergometer (Gary Fisher Tarpon OS Series Mountain Bike connected to a Computrainer Pro model 8002 RacerMate EBRA™ Approved System with software version 1.1.59) to assess maximal oxygen consumption (VO2max), and were scheduled for testing sessions 2 and 3 (day 11 and day 21). VO2max was determined using a Sensormedic V229 Metabolic System that was calibrated following the recommended technical guidelines (Sensormedics Corporation, Yorba Linda, Calif.). Upon completion of the VO2max test the participants were randomly assigned to one of two groups and received a 10-day supply of either the placebo or PS (600 mg per day of soy-derived PS).
The second and third exercise sessions were performed to determine testosterone responses to exercise induced stress at rest, during exercise, and recovery. On the tenth day of supplementation the participants ingested the last dose of the assigned substance (PS or placebo) and reported to the laboratory at 7 am after an overnight fast. Venous blood samples were taken on arrival (−30) and 30 minutes later, which was just prior to the start of exercise (0). Following the 30 minute rest period, the participants were asked to begin exercising on the cycle ergometer at an exercise intensity calculated to elicit 65% of VO2max. The intensity of exercise was increased automatically by 5% every 3-minute increment until the intensity was at 85% of VO2max (five-three minute stages). After cycling for a total of 15 minutes, the subject stopped exercising and a post-exercise venous blood sample was taken immediately. […]

[3] = subject one, 300 mg daily for 11 days
[4] = subject two, 400 mg daily for 11 days

phosphatidylserine [PS]
increase of free testosterone (older males; [3]): 22% | increase of serum testosterone (older males; [3]): 6.4% | free testosterone after treatment (older males; subject one, 300 mg daily for 11 days, day 12, day 1 22.1): 27.0 picograms/ml | serum testosterone after treatment (older males; subject one, 300 mg daily for 11 days, day 12, day 1 734): 781 nanograms/deciliter | increase of serum testosterone (older males; subject three, 600 mg for 11 days): 16% | serum testosterone after treatment (older males; subject three, 600 mg for 11 days, eleventh day, first day 575): 665 nanograms per deciliter | increase of free testosterone (older males; [4]): 58% | increase of serum testosterone (older males; [4]): 51% | free testosterone after treatment (older males; subject two, 400 mg daily for 11 days, day 12, day 1 11.4): 18.0 picograms/ml | serum testosterone after treatment (older males; subject two, 400 mg daily for 11 days, day 12, day 1 290): 437 nanograms/deciliter | cortisol response compared to placebo (cortisol response [1]; 400 mg): no significant result | lowering of cortisol response (cortisol response [1]; 800 mg supplementation): 30% | reduction of cortisol response to intensive resistance training (cortisol response [2]): 20% | effect on testosterone levels (cortisol response [2]; intensive resistance training): no effect | increase of AUC for testosterone to cortisol ratio compared to placebo (healthy male subjects; 600 mg PS per day oral for 10 days, 10 healthy males, p<0.05): 184±5% | increase of plasma testosterone concentrations compared with placebo (healthy male subjects; 600 mg/day S-PS for 10 days): 51±6% | plasma testosterone levels at the beginning of the exercise compared to placebo (healthy male subjects; 600 mg/day S-PS for 10 days): higher plasma testosterone levels | increase of testosterone area under the curve versus placebo (healthy male subjects; 600 mg/day S-PS for 10 days, FIG. 2, p=0.02): 37±5% | mean peak concentration of testosterone (healthy male subjects; 600 mg/day S-PS for 10 days, plasma, placebo 5.5±0.3, P (treatment) 0.13): 8.3 ± 1.7 ng/mL
